Three compounds from patent US10995068B2, “Synthetic sphingolipid-like molecules, drugs, methods of their synthesis and methods of treatment” (The Regents of the University of California, priority 2015, dated 2021) can be followed below.

Data set [1] concerns 4F2 cell-surface antigen heavy chain (4F2hc). Briefly: Surface 4F2hc nutrient transporter expression. The format is cell-based, human. The settings on record: treatment at IC50 and at twice this dose, 6 h; efficacy similar to FTY720. The text has this:
The broad activity of the embodiments of the inventions described herein is consistent with a bioenergetic mechanism of action against cancer cells that includes nutrient transporter down-regulation, as described supra. Thus, to directly examine the constrained pyrrolidine sphingolipid-like molecules on nutrient transport, the surface-levels of the amino acid transporter associated protein 4F2 cell-surface antigen heavy chain (4F2hc) was examined following treatment with several analogues at their IC50 and at twice this dose.
Nutrient transporter expression: Surface 4F2hc expression is measured at 6 h using phycoerythrin (PE)-conjugated mouse anti-human 4F2hc antibody (BD Pharmingen, cat #556077); analysis is restricted to viable cells. PE conjugated Mouse IgG1, k (cat #555749, BD Pharmingen) is used as an isotype control. Cells are analyzed on a BD LSR II flow cytometer and with FlowJo software (Treestar).

Another data set has as its system FL5.12 cells. Briefly: Vacuolation assay. The settings on record: FL5.12 cells, 3 h in 2.5 μM compound except where otherwise indicated, mean ± SEM, n ≥3. The arrangement: key to Vacuolation score: 0-100 score: (3×%cat3+2×%cat2+1×%cat1)/3; cells graded 0-3 for vacuoles. It counts as cell-based, murine. The gist of the method:
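Cells incubated 3 h with 2.5 μM compound unless noted, then examined by brightfield/DIC microscopy at 100×. At least 15 cells per experiment graded 0–3; weighted % score divided by 3 (maximum 100), averaged over three independent experiments as mean±SEM.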

The target of another data set is T1, S1P receptor 3 (Homo sapiens, UniProt Q99500).
T1 construct: expressed in transfected cells
Briefly: S1P receptor activation in CHO cells, S1P3. The format is cell-based. Conditions: CHO cells over-expressing human S1P3. In a few lines: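 CHO cells stably overexpressing each human S1P receptor subtype, serum-starved 24 h, then stimulated 10 min in serum-free DMEM with 0.1 mg/ml fatty-acid-free BSA ± compounds or S1P. Lysates analysed by Western blot for phospho-Thr202/Tyr204-p42/p44-MAPK and phospho-Ser PKC substrate, normalised to total p42/p44.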

Data set [2] relates to luciferase-expressing SW620 xenografts. Briefly: Luciferase-expressing SW620 xenografts treated with SH-BC-893. The format is in vivo, mice. The settings on record: for SW620 tumors by bioluminescence imaging, caliper measurements and tumor mass at sacrifice: luciferase-expressing SW620 xenografts in mice, SH-BC-893 20 mg/kg i.p. The method, then:
In many embodiments, exemplary experimentation was carried out to determine whether azacyclic constrained sphingolipid-lipid molecules inhibited neoplastic growth in vivo. To carry out this experimentation, luciferase-expressing SW620 xenografts were generated in mice.
In vivo studies. Experiments conducted in mice were performed in accordance with the Institutional Animal Care and Use Committee of University of California, Irvine following a power analysis conducted in consultation with the Biostatistics Shared Resource of Chao Family Comprehensive Cancer Center at UCI. Xenografts were produced by injecting 5 million cells subcutaneously in the flank of 10-16 week-old male or female NSG mice. Prostate isografts were produced in the same manner but in male 6-8 wk old C57BL/6 mice. Once tumors reached 100 mm^3, SH-BC-893 was administered by intraperitoneal (i.p.) injection or oral gavage as indicated. Tumor volume was calculated using the formula, volume (mm^3)=length [mm]×(width [mm])^2×0.52; BLI was measured using an IVIS imaging system (Xenogen). To generate pDKO mice on the C57BL6 background, Pten^flox mice (stock No. 0045597) and p53^flox mice (stock No. 008462) were obtained from the Jackson Laboratory and PB-Cre4 mice (strain #01XF5) were obtained from the NCI-Frederick Mouse Repository. Age-matched cohorts of pDKO males were generated by in vitro fertilization executed with the assistance of the Transgenic Mouse Facility at UC Irvine. Treatment was begun at 6-7 wks of age. […] Tumor samples were processed and imaged by the Pathology Research Services Core Facility at UC Irvine. Blood chemistry was analyzed by IDEXX BioResearch and complete blood counts were performed using a Hemavet hematology system.

Values joined by “and” are separate entries in the source; they are usually repeats but may differ in a detail not shown here. Equal entries are not always repeated.

T1 sequence (Q99500 whole entry): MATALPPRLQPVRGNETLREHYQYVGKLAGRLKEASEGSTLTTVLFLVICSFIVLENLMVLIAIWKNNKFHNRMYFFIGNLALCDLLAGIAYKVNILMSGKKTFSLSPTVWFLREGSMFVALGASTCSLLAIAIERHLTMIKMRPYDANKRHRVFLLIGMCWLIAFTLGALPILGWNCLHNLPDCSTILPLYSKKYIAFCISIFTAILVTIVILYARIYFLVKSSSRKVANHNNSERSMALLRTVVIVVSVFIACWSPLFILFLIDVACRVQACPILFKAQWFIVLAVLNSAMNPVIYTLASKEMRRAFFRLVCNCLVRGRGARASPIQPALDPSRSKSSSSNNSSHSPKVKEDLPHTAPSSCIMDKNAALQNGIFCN

For the compound `CCCCCCCCc1ccc([C@H]2CCN[C@@H]2CO)cc1.Cl` [Compound 5, (2S,3R)-2-(hydroxymethyl)-3-(4-octylphenyl)Pyrrolidinium chloride], in data set [1], the 4F2hc surface levels entry is given as “reduced 4F2hc surface levels”. For the same compound, the Vacuolation score in the data set with FL5.12 cells (listed as 104) was 81 and 81 ± 3. For the same compound, the “activation of S1P receptor 3” value at S1P receptor 3 is given as “failed to activate”. Besides, in data set [2] (SW620 xenograft mice), the “body weight of treated mice” value is “Mild weight loss”. In data set [2], the “SW620 tumors by bioluminescence imaging, caliper measurements and tumor mass at sacrifice” value is recorded as “reduced to a similar degree”.
Take `CCCCCCCCc1ccc([C@@H]2CCN[C@H]2CO)cc1.Cl` [Compound 6]: the 4F2hc surface levels entry in data set [1] is recorded as “reduced 4F2hc surface levels”. For the same compound, the “activation of S1P receptor 3” value at S1P receptor 3 was “failed to activate”.
Turning to `CCCCCCCCc1ccc(CCC(N)(CO)CO)cc1.Cl` [FTY720, 2-Amino-2-[2-(4-octylphenyl)ethyl]propane 1,3-diol hydrochloride, reference compound], the Vacuolation score in the data set with FL5.12 cells turned out to be 82 ± 4. Also, the “SW620 tumors by bioluminescence imaging, caliper measurements and tumor mass at sacrifice” value in data set [2] is on record as “reduced to a similar degree”.
